Several values for one entry are separate records, joined by “and”; a condition that tells them apart may be missing. Equal values may be shown once.
Tested on: ANGIOTENSIN II (AII) VASOPRESSOR RESPONSE
Assay: AII Challenge: blockade of the angiotensin II vasopressor response in conscious spontaneously hypertensive rats
Format: in vivo, rat (Male Okamoto-Aoki SHR)
From the text: By administering a compound of this invention to a rat, and then challenging with angiotensin II, a blockage of the vasopressor response is realized.
Conscious Male Okamoto-Aoki SHR, 16-20 weeks old, weighing approximately 330 g are purchased from Charles River Labs (Wilmington, Mass.). Conscious rats are restrained in a supine position with elastic tape. The area at the base of the tail is locally anesthetized by subcutaneous infiltration with 2% procaine. The ventral caudal artery and vein are isolated, and a cannula made of polyethylene (PE) 10-20 tubing (fused together by heat) is passed into the lower abdominal aorta and vena cava, respectively. The cannula is secured, heparinized (1,000 I.U./ml), sealed and the wound is closed. The animals are placed in plastic restraining cages in an upright position. The cannula is attached to a Statham P23Db pressure transducer, and pulsatile blood pressure is recorded to 10-15 minutes with a Gould Brush recorder. (Chan et al., (Drug Development Res., 18:75-94, 1989).
Angiotensin II (human sequence, Sigma Chem. Co., St. Louis, Mo.) of 0.05 and 0.1 ug/kg i.v. is injected into all rats (predosing response). Then a test compound, vehicle or a known angiotensin II antagonist is administered i.v., i.p. or orally to each set of rats. The two doses of angiotensin II are given to each rat again at 30, 60, 90, 120, 180, 240 and 300 minutes post dosing the compound or vehicle. The vasopressor response of angiotensin II is measured for the increase in systolic blood pressure in mmHg. The percentage of antagonism or blockade of the vasopressor response of angiotensin II by a compound is calculated using the vasopressor response (increase in systolic blood pressure) of angiotensin II of each rat predosing the compound as 100%. A compound is considered active if at 30 mg/kg i.v. it antagonized at least 50% of the response.

[1] = 3 mg/kg i.v., AII 0.05 mcg/kg IV, 30 min post dose
[2] = 3 mg/kg i.v., AII 0.05 mcg/kg IV, 60 min post dose
[3] = 3 mg/kg i.v., AII 0.05 mcg/kg IV, 90 min post dose
[4] = 3 mg/kg i.v., AII 0.05 mcg/kg IV, 120 min post dose
[5] = 3 mg/kg i.v., AII 0.05 mcg/kg IV, 180 min post dose
[6] = 3 mg/kg i.v., AII 0.05 mcg/kg IV, 240 min post dose
[7] = 3 mg/kg i.v., AII 0.05 mcg/kg IV, 300 min post dose
[8] = 3 mg/kg i.v., AII 0.1 mcg/kg IV, 30 min post dose
[9] = 3 mg/kg i.v., AII 0.1 mcg/kg IV, 60 min post dose
[10] = 3 mg/kg i.v., AII 0.1 mcg/kg IV, 90 min post dose
[11] = 3 mg/kg i.v., AII 0.1 mcg/kg IV, 120 min post dose
[12] = 3 mg/kg i.v., AII 0.1 mcg/kg IV, 180 min post dose
[13] = 3 mg/kg i.v., AII 0.1 mcg/kg IV, 240 min post dose
[14] = 3 mg/kg i.v., AII 0.1 mcg/kg IV, 300 min post dose
[15] = 3 mg/kg p.o., AII 0.05 mcg/kg IV, 30 min post dose
[16] = 3 mg/kg p.o., AII 0.05 mcg/kg IV, 60 min post dose
[17] = 3 mg/kg p.o., AII 0.05 mcg/kg IV, 90 min post dose
[18] = 3 mg/kg p.o., AII 0.05 mcg/kg IV, 120 min post dose
[19] = 3 mg/kg p.o., AII 0.05 mcg/kg IV, 180 min post dose
[20] = 3 mg/kg p.o., AII 0.05 mcg/kg IV, 240 min post dose
[21] = 3 mg/kg p.o., AII 0.1 mcg/kg IV, 30 min post dose
[22] = 3 mg/kg p.o., AII 0.1 mcg/kg IV, 60 min post dose
[23] = 3 mg/kg p.o., AII 0.1 mcg/kg IV, 90 min post dose
[24] = 3 mg/kg p.o., AII 0.1 mcg/kg IV, 120 min post dose
[25] = 3 mg/kg p.o., AII 0.1 mcg/kg IV, 180 min post dose
[26] = 3 mg/kg p.o., AII 0.1 mcg/kg IV, 240 min post dose

## CCCCc1nc2ccc([C@H]3OC[C@H]4[C@@H]3ON3[C@@H]4CCC3(C)C)cc2c(=O)n1Cc1ccc(-c2ccccc2-c2nnn[nH]2)cc1 (relative stereo) [Example 7, (1α, 3aα, 8aβ, 8bα)-2-Butyl-6-(octahydro-6,6-dimethylfuro[3,4-d]pyrrolo[1,2-b]isoxazol-1-yl)-3-[[2'-(1H-tetrazol-5-yl)[1,1'-biphenyl]-4-yl]methyl]-4 (3H)-quinazolinone]
[1]
  % Inhibition: 91%
  Average Change: 4.5 mmHg
  Control Before AII (single rat): 245 mmHg and 214 mmHg
  Response After AII (single rat): 245 mmHg and 223 mmHg
  Response Change (single rat): 0 mmHg and 9 mmHg
[2]
  % Inhibition: 84%
  Average Change: 7.5 mmHg
  Control Before AII (single rat): 240 mmHg and 225 mmHg
  Response After AII (single rat): 255 mmHg and 225 mmHg
  Response Change (single rat): 15 mmHg and 0 mmHg
[3]
  % Inhibition: 89%
  Average Change: 5 mmHg
  Control Before AII (single rat): 235 mmHg
  Response After AII (single rat): 240 mmHg
  Response Change (single rat): 5 mmHg
[4]
  % Inhibition: 84%
  Average Change: 7.5 mmHg
  Control Before AII (single rat): 225 mmHg and 220 mmHg
  Response After AII (single rat): 235 mmHg and 225 mmHg
  Response Change (single rat): 10 mmHg and 5 mmHg
[5]
  % Inhibition: 79%
  Average Change: 10 mmHg
  Control Before AII (single rat): 225 mmHg and 215 mmHg
  Response After AII (single rat): 235 mmHg and 225 mmHg
  Response Change (single rat): 10 mmHg
[6]
  % Inhibition: 63%
  Average Change: 17.5 mmHg
  Control Before AII (single rat): 225 mmHg and 215 mmHg
  Response After AII (single rat): 235 mmHg and 240 mmHg
  Response Change (single rat): 10 mmHg and 25 mmHg
[7]
  % Inhibition: 74%
  Average Change: 12.5 mmHg
  Control Before AII (single rat): 235 mmHg and 210 mmHg
  Response After AII (single rat): 242 mmHg and 228 mmHg
  Response Change (single rat): 7 mmHg and 18 mmHg
[8]
  % Inhibition: 90%
  Average Change: 5 mmHg
  Control Before AII (single rat): 255 mmHg and 220 mmHg
  Response After AII (single rat): 260 mmHg and 225 mmHg
  Response Change (single rat): 5 mmHg
[9]
  % Inhibition: 86%
  Average Change: 7.5 mmHg
  Control Before AII (single rat): 250 mmHg and 215 mmHg
  Response After AII (single rat): 255 mmHg and 225 mmHg
  Response Change (single rat): 5 mmHg and 10 mmHg
[10]
  % Inhibition: 83%
  Average Change: 9 mmHg
  Control Before AII (single rat): 235 mmHg and 225 mmHg
  Response After AII (single rat): 238 mmHg and 240 mmHg
  Response Change (single rat): 3 mmHg and 15 mmHg
[11]
  % Inhibition: 86%
  Average Change: 7.5 mmHg
  Control Before AII (single rat): 235 mmHg and 215 mmHg
  Response After AII (single rat): 240 mmHg and 225 mmHg
  Response Change (single rat): 5 mmHg and 10 mmHg
[12]
  % Inhibition: 72%
  Average Change: 14.5 mmHg
  Control Before AII (single rat): 235 mmHg and 205 mmHg
  Response After AII (single rat): 245 mmHg and 224 mmHg
  Response Change (single rat): 10 mmHg and 19 mmHg
[13]
  % Inhibition: 81%
  Average Change: 10 mmHg
  Control Before AII (single rat): 235 mmHg and 225 mmHg
  Response After AII (single rat): 245 mmHg and 235 mmHg
  Response Change (single rat): 10 mmHg
[14]
  % Inhibition: 57%
  Average Change: 22.5 mmHg
  Control Before AII (single rat): 230 mmHg and 215 mmHg
  Response After AII (single rat): 250 mmHg and 240 mmHg
  Response Change (single rat): 20 mmHg and 25 mmHg
[15]
  % Inhibition: 23%
  Average Change: 29 mmHg
  Control Before AII (single rat): 215 mmHg and 205 mmHg
  Response After AII (single rat): 248 mmHg and 230 mmHg
  Response Change (single rat): 33 mmHg and 25 mmHg
[16]
  % Inhibition: 27%
  Average Change: 27.5 mmHg
  Control Before AII (single rat): 230 mmHg and 195 mmHg
  Response After AII (single rat): 255 mmHg and 225 mmHg
  Response Change (single rat): 25 mmHg and 30 mmHg
[17]
  % Inhibition: 31%
  Average Change: 26 mmHg
  Control Before AII (single rat): 210 mmHg and 193 mmHg
  Response After AII (single rat): 245 mmHg and 210 mmHg
  Response Change (single rat): 35 mmHg and 17 mmHg
[18]
  % Inhibition: 27%
  Average Change: 27.5 mmHg
  Control Before AII (single rat): 210 mmHg and 195 mmHg
  Response After AII (single rat): 245 mmHg and 215 mmHg
  Response Change (single rat): 35 mmHg and 20 mmHg
[19]
  % Inhibition: 0%
  Average Change: 37.5 mmHg
  Control Before AII (single rat): 210 mmHg and 190 mmHg
  Response After AII (single rat): 255 mmHg and 220 mmHg
  Response Change (single rat): 45 mmHg and 30 mmHg
[20]
  % Inhibition: 0%
  Average Change: 37.5 mmHg
  Control Before AII (single rat): 210 mmHg and 190 mmHg
  Response After AII (single rat): 260 mmHg and 215 mmHg
  Response Change (single rat): 50 mmHg and 25 mmHg
[21]
  % Inhibition: 6%
  Average Change: 40 mmHg
  Control Before AII (single rat): 215 mmHg and 200 mmHg
  Response After AII (single rat): 260 mmHg and 235 mmHg
  Response Change (single rat): 45 mmHg and 35 mmHg
[22]
  % Inhibition: 6%
  Average Change: 40 mmHg
  Control Before AII (single rat): 215 mmHg and 195 mmHg
  Response After AII (single rat): 255 mmHg and 235 mmHg
  Response Change (single rat): 40 mmHg
[23]
  % Inhibition: 18%
  Average Change: 35 mmHg
  Control Before AII (single rat): 215 mmHg and 195 mmHg
  Response After AII (single rat): 260 mmHg and 220 mmHg
  Response Change (single rat): 45 mmHg and 25 mmHg
[24]
  % Inhibition: 24%
  Average Change: 32.5 mmHg
  Control Before AII (single rat): 205 mmHg and 190 mmHg
  Response After AII (single rat): 240 mmHg and 220 mmHg
  Response Change (single rat): 35 mmHg and 30 mmHg
[25]
  % Inhibition: 12%
  Average Change: 37.5 mmHg
  Control Before AII (single rat): 215 mmHg and 180 mmHg
  Response After AII (single rat): 260 mmHg and 210 mmHg
  Response Change (single rat): 45 mmHg and 30 mmHg
[26]
  % Inhibition: 9%
  Average Change: 38.5 mmHg
  Control Before AII (single rat): 213 mmHg and 185 mmHg
  Response After AII (single rat): 265 mmHg and 210 mmHg
  Response Change (single rat): 52 mmHg and 25 mmHg
